Our source for the target mRNA inhibition values is the OligoGym collection.

After the bases stand the sugars from the 5' end (letter, count) and the backbone: PS all phosphorothioate, else s phosphorothioate and o phosphodiester by linkage. Methylation of C is not given here. e = 2'-O-(2-methoxyethyl) (MOE); k = constrained ethyl (cEt); d = 2'-deoxy (DNA); m = 2'-O-methyl

The data set deals with HSD17B13. Conditions: ASO, HepaRG.

As for GAAATCTTGTGTAACT (sugars k3 d10 k3, PS), the target mRNA inhibition by setting is: (0.02 µM) 0%; (0.078 µM) 4%; (0.313 µM) 37%; (1 µM) 69%; (1.25 µM) 71%; (5 µM) 87%.

Regarding “GTTAGTATAGTTATCT (sugars k3 d1 m1 d8 k3, PS)”, the target mRNA inhibition (1 µM) came out at 52%.

“AATAUGGGATGAGGTA (sugars k3 d1 m1 d8 k3, PS)”: the target mRNA inhibition (1 µM) was 38%.

Where the note is “1 µM”, “TTAGTTAGAATAGTCT (sugars kkdddddddddkekek, PS)” showed a target mRNA inhibition of 53%.

Under “1 µM”, “ACAGATTGGAATGCTA (sugars kkdddddddddkekek, PS)” gave a target mRNA inhibition of 49%.

Turning to ACAAAATCATGGTGTG (sugars k3 d10 k3, PS), the target mRNA inhibition (1 µM) came out at 26%.

Turning to “TATTGGTAAGTATTCC (sugars k3 d1 m1 d8 k3, PS)”, the target mRNA inhibition (1 µM) is 41%.

The sequence TAAAGGTTTCTGTTGC (sugars k3 d10 k3, PS) came in with a target mRNA inhibition (0.02 µM) of 0%; a target mRNA inhibition (0.078 µM) of 9%; a target mRNA inhibition (0.313 µM) of 32%; a target mRNA inhibition (1 µM) of 66%; a target mRNA inhibition (1.25 µM) of 67%; a target mRNA inhibition (5 µM) of 74%.

For the sequence CCATAACCATAGGACA (sugars k3 d10 k3, PS), the target mRNA inhibition amounted to 35% (0.02 µM); 13% (0.078 µM); 54% (0.313 µM); 63% (1 µM); 78% (1.25 µM); 91% (5 µM).

With AGGAAGTGATCCATAT (sugars k3 d10 k3, PS), the target mRNA inhibition (1 µM) is 60%.

On to ACAGTAAAATTATGCC (sugars k3 d10 k3, PS), for which the target mRNA inhibition is, setting by setting: (0.02 µM) 0%; (0.078 µM) 0%; (0.313 µM) 4%; (1 µM) 73%; (1.25 µM) 50%; (5 µM) 68%.

For “GAGTGCATCTTAAGAT (sugars kkdddddddddkekek, PS)”, under “1 µM”, the target mRNA inhibition was 27%.

The sequence “TACAGATTGGAATGCT (sugars k3 d1 m1 d8 k3, PS)” gave a target mRNA inhibition (1 µM) of 60%.

Turning to CCACATAGCTAACTCA (sugars k3 d10 k3, PS), the target mRNA inhibition (1 µM) stood at 53%.

On to AAGTAGGAGTAGATGA (sugars k3 d10 k3, PS), for which, under “1 µM”, the target mRNA inhibition was found to be 0%.

Sequence TGATACACCAATGCAG (sugars k3 d10 k3, PS) registered a target mRNA inhibition (1 µM) of 44%.

GGAGGTAGCTTTTGTC (sugars k3 d10 k3, PS) had a target mRNA inhibition (1 µM) of 43%.

GTATTCCATAAAGCTG (sugars k3 d10 k3, PS) had a target mRNA inhibition (1 µM) of 10%.

On to TGCAAGATTTACTTCC (sugars k3 d10 k3, PS), for which, under “1 µM”, the target mRNA inhibition came to 45%.

Under “1 µM”, CGTGGCCGCACACTGA (sugars k3 d10 k3, PS) came in with a target mRNA inhibition of 42%.

As for CCATGCAAAAGCATTC (sugars k3 d10 k3, PS), the target mRNA inhibition (1 µM) stood at 72%.

For the sequence GGCAAAGATCTGGCCA (sugars k3 d10 k3, PS), for the setting “1 µM”, the target mRNA inhibition came to 10%.

Under “1 µM”, CATCTATCATGCCTTC (sugars k3 d10 k3, PS) gave a target mRNA inhibition of 18%.

AACTAAACATGACAGC (sugars k3 d10 k3, PS) showed a target mRNA inhibition (0.02 µM) of 8%; a target mRNA inhibition (0.078 µM) of 26%; a target mRNA inhibition (0.313 µM) of 40%; a target mRNA inhibition (1 µM) of 72%; a target mRNA inhibition (1.25 µM) of 65%; a target mRNA inhibition (5 µM) of 85%.

In turn, “CAGAGACATGAGGTTT (sugars kkdddddddddkekek, PS)” returned a target mRNA inhibition (1 µM) of 61%.

For “AGGTTGAGATAAAGCT (sugars kkdddddddddkekek, PS)”, the target mRNA inhibition (1 µM) is 60%.

For the sequence “AGACUTTGAGACTCTT (sugars k3 d1 m1 d8 k3, PS)”, the target mRNA inhibition (1 µM) was determined as 48%.

With “AGTCCATGCAAAAGCA (sugars k3 d1 m1 d8 k3, PS)”, the target mRNA inhibition is, setting by setting: (0.02 µM) 0%; (0.078 µM) 21%; (0.313 µM) 20%; (1 µM) 73%; (1.25 µM) 65%; (5 µM) 75%.

The sequence TCAAAACCTTTGTTGC (sugars k3 d10 k3, PS) showed a target mRNA inhibition (1 µM) of 6%.

Under “1 µM”, “CGTTTTGGGCTAATGA (sugars k3 d9 k3 e1, PS)” displayed a target mRNA inhibition of 52%.

The sequence GATTAGTTAACCTTTT (sugars k3 d10 k3, PS) returned a target mRNA inhibition (1 µM) of 58%.

In turn, TTGTTAGAGTGCTTAG (sugars k3 d10 k3, PS) gave a target mRNA inhibition (1 µM) of 76%.

As for “CTTATTGGTAAGTATT (sugars kkdddddddddkekek, PS)”, under “1 µM”, the target mRNA inhibition came out at 9%.

Under “1 µM”, AACTACTTCAGTTAGC (sugars k3 d10 k3, PS) yielded a target mRNA inhibition of 53%.

“ATCTTATAAGACTATA (sugars kkdddddddddkekek, PS)” showed a target mRNA inhibition (1 µM) of 30%.

Regarding TCTAAATACCCTTGGT (sugars k3 d10 k3, PS), the target mRNA inhibition (1 µM) turned out to be 26%.

“ATTGUCTAAACATCTC (sugars k3 d1 m1 d8 k3, PS)”: where the note is “1 µM”, the target mRNA inhibition was 73%.

CTAGAACACTTGCCTC (sugars k3 d10 k3, PS) registered a target mRNA inhibition (1 µM) of 25%.

On to “GAGATAAAGCTGCCTG (sugars kkdddddddddkekek, PS)”, for which the target mRNA inhibition (1 µM) came out at 40%.

For the sequence AGCCTTAGAGTGAATC (sugars k3 d10 k3, PS), the target mRNA inhibition came to 35% (0.02 µM); 54% (0.078 µM); 84% (0.313 µM); 74% (1 µM); 94% (1.25 µM); 89% (5 µM).

As for TCATTTTTAATACGAC (sugars k3 d10 k3, PS), the target mRNA inhibition (1 µM) is 48%.

With TTGGGACCAATATAAT (sugars k3 d10 k3, PS), the target mRNA inhibition (1 µM) stood at 18%.

Consider “CACAAGTAAGGTAAAG (sugars k3 d1 m1 d8 k3, PS)”, for which the target mRNA inhibition (1 µM) stood at 43%.

As to “ACATTAGCAAGCTAAG (sugars kkdddddddddkekek, PS)”, for the setting “1 µM”, the target mRNA inhibition worked out at 23%.

The sequence GAACCAATATGCTCTG (sugars k3 d10 k3, PS) returned a target mRNA inhibition (1 µM) of 61%.

CAGTTTAGATTGCATA (sugars k3 d10 k3, PS) gave a target mRNA inhibition (1 µM) of 60%.

The sequence GCACATCATGTTTTGC (sugars k3 d10 k3, PS) showed a target mRNA inhibition (1 µM) of 44%.

TCTCTGGGACCAAGGA (sugars k3 d10 k3, PS) showed a target mRNA inhibition (1 µM) of 56%.

Under “1 µM”, “ATCTCTGGGACCAAGG (sugars k3 d1 m1 d8 k3, PS)” registered a target mRNA inhibition of 52%.

For the sequence GGCTTAATTTTCGGGT (sugars k3 d10 k3, PS), for the setting “1 µM”, the target mRNA inhibition was 17%.

Turning to CACCAACGACTCCAAG (sugars k3 d10 k3, PS), where the note is “1 µM”, the target mRNA inhibition is 16%.

CACAATCTAGCAACCT (sugars k3 d10 k3, PS) registered a target mRNA inhibition (1 µM) of 40%.

“CTGCUGCTAGTGCCAA (sugars k3 d1 m1 d8 k3, PS)” came in with a target mRNA inhibition (1 µM) of 66%.

For the sequence “ACATTAGCAAGCTAAG (sugars k3 d9 k3 e1, PS)”, the target mRNA inhibition (1 µM) is 41%.
